{"source": "patent US7192746B2", "about": "“α-Isomaltosyltransferase, process for producing the same and use thereof” (Kabushiki Kaisha Hayashibara Seibutsu Kagaku Kenkyujo, priority 2000, dated 2007)", "key": {"[1]": {"test_system": "α-isomaltosyl-transferring enzyme from Bacillus globisporus C9", "assay": "Formation of cyclotetrasaccharide from components A, B and C", "assay_type": "biochemical", "settings": "Enzyme of Strain C9, 35° C., 8 hours", "method": "(§1) Using a purified α-isomaltosyl-transferring enzyme, the formation of cyclotetrasaccharide from the above-identified components A, B and C was examined as follows: One percent (w/v) of an aqueous solution (pH 6.0) of the component A (3-O-α-isomaltosylpanose represented by Chemical Formula 1), the component B (4-O-α-isomaltosylpanose represented by Chemical Formula 2), or the component C (1-O-α-isomaltosyl-β-panoside represented by Chemical Formula 3) was prepared into a substrate solution. To each of the resulting solutions was added one unit/g substrate of a purified specimen of α-isomaltosyl-transferring enzyme from Bacillus globisporus C9 obtained by the method in Experiment 4, or Bacillus globisporus C11 obtained by the method in Experiment 7, followed by enzymatic reaction at 35° C. for eight hours. Thereafter, the resulting mixtures were analyzed on HPLC for saccharide composition (%)."}, "[2]": {"test_system": "α-isomaltosyl-transferring enzyme from Bacillus globisporus C11", "assay": "Formation of cyclotetrasaccharide from components A, B and C", "assay_type": "biochemical", "settings": "Enzyme of Strain C11, 35° C., 8 hours", "method": "as §1"}, "[3]": {"settings": "1% (w/v) substrate, pH 6.0, 1 unit/g substrate"}}, "data": [{"smiles": "OC[C@H]1O[C@H](OC[C@H]2O[C@H](O[C@@H]3O[C@H](CO)[C@@H](O[C@H]4O[C@H](CO[C@H]5O[C@H](CO)[C@@H](O)[C@H](O)[C@H]5O)[C@@H](O)[C@H](O)[C@H]4O)[C@H](O)[C@H]3O)[C@H](O)[C@@H](O)[C@@H]2O)[C@H](O)[C@@H](O)[C@@H]1O", "note": "[Component C, 1-O-α-isomaltosyl-β-panoside]", "values": [{"measurement": "Saccharide composition, remaining Substrate", "setting": "[1]; [3]", "value": 55.8, "unit": "%"}, {"measurement": "Saccharide composition, Cyclotetrasaccharide", "setting": "[1]", "value": 6.0, "unit": "%"}, {"measurement": "Saccharide composition, Glucose", "setting": "[1]", "value": 0.2, "unit": "%"}, {"measurement": "Saccharide composition, Others", "setting": "[1]", "value": 38.0, "unit": "%"}, {"measurement": "Saccharide composition, remaining Substrate", "setting": "[2]; [3]", "value": 56.0, "unit": "%"}, {"measurement": "Saccharide composition, Cyclotetrasaccharide", "setting": "[2]", "value": 5.9, "unit": "%"}, {"measurement": "Saccharide composition, Glucose", "setting": "[2]", "value": 0.2, "unit": "%"}, {"measurement": "Saccharide composition, Others", "setting": "[2]", "value": 37.9, "unit": "%"}]}]}
